# Where a name gives a salt, the structure may show the parent alone.
# Experiments:
# mouse neural stem cells [1] = test: Real-time RT-PCR of neuronal / dopaminergic markers in cultured neural stem cells; assay type: cell-based; conditions: 4 days; for Tuj1 (marker of neurons) expression / tyrosine hydroxylase (TH) expression: AS703026, AZD8330 10 μM, PD318088, Trametinib, Refametinib 1 μM; for Tuj1 (marker of neurons) expression: FIG. 8B; for tyrosine hydroxylase (TH) expression: FIG. 8C
# Procedure: Neural stem cells were isolated from the brain of a day 14.5 mouse embryo, treated with 10 ng/ml human basic fibroblast growth factor (bFGF) (Peprotech, Princeton, N.J.) and 20 ng/ml human epidermal growth factor (EGF) (Peprotech) in a N2 culture medium, and cultured in suspension in a 25 cm^2 flask (Nunc, Pittsburgh, Pa.) for 4 days.
# Neurospheres were treated with TrypLE and then separated into single cells, which were uniformly seeded into a culture dish coated with 15 μg/ml poly-L-ornithine and 10 μg/ml fibronectin. Following culture, the morphology of the cells was observed.
# The N2 culture medium was Dulbecco's modified Eagle's medium (DMEM)/F12 (1:1) supplemented with 100 μM putrescine, 30 nM selenite, 20 nM progesterone, 1.55 mg/ml d-(+)-glucose, 25 μg/ml insulin, […] apo-transferrin, 0.5 mM alanyl glutamine, 100 IU/ml penicillin, and 100 μg/ml streptomycin.
# (§1) Mouse neural stem cells were cultured in accordance with the procedure of Example 1. […] The cells were cultured for 4 days.
# (§2) Neurospheres were treated with TrypLE and separated into single cells, which were uniformly seeded into a culture dish coated with 15 μg/ml poly-L-ornithine and 10 μg/ml fibronectin. Following culture, the morphology of the cells was observed.
# To this end, real-time (RT) PCR analysis was performed on neuron-specific markers. On day 4 after in vitro differentiation, mRNA expression was identified. The numbers in the graph indicate average values of mRNA expression levels relative to the respective controls from real-time PCR analyses in triplicate.
# (§3) In this example, it was confirmed whether dopaminergic neurons were differentiated from neural stem cells.
# mouse neural stem cells [2] = test: Morphological analysis of treated neural stem cells; assay type: cell-based; conditions: AS703026, AZD8330 10 μM; PD318088, Trametinib, Refametinib 1 μM; 4 days; FIG. 8A
# Procedure: as §1, §2, §3
# mouse neural stem cells [3] = test: Immunocytochemical analysis of marker expression in cultured neural stem cells; assay type: cell-based; conditions: 10 μM, 4 days
# Procedure: Mouse neural stem cells were cultured in accordance with the procedure of Example 1. […] The cells were cultured for 4 days. Neurospheres were treated with TrypLE and separated into single cells, which were uniformly seeded into a culture dish coated with 15 μg/ml poly-L-ornithine and 10 μg/ml fibronectin. Following culture, the morphology of the cells was observed. […] In this example, it was confirmed whether dopaminergic neurons were differentiated from neural stem cells. To this end, immunoblot analysis and immunocytochemical analysis were performed on the neural progenitor cells (undifferentiated; UD) cultured in Example 1, the differentiated cells (D) cultured in Comparative Example 1, and the AS703026-treated cells (UD+AS) cultured in Example 2, and the results were compared. The immunocytochemical analysis was performed by the following procedure. First, the cells were fixed in 4% para-formaldehyde at room temperature for 10 min, washed with PBS, and incubated with 0.2% Triton X-100 at room temperature for 15 min. After blocking with 10% BSA at room temperature for 1 h, the cells were incubated with anti-Tuj1 (Covance, Princeton, N.J.), anti-GFAP (Biogenex, San Ramon, Calif.), anti-MBP (Abcam), anti-Ki67 (Abcam), anti-p-ERK1/2 or anti-TH antibodies at 4° C. overnight, and cultured using Alexa Fluor 488- or Alexa Fluor 555-conjugated IgG secondary antibodies (Molecular Probes, Eugene, Oreg.) at room temperature for 1 h. Subsequently, the cells were cultured with 1 μg/ml 4′,6-diamidino-2-phenylindole (DAPI) for 5 min, the inlet was sealed with a coverslip, and the cells were observed using a confocal microscope. FIGS. 4 and 5 show the results of immunoblot analysis (FIG. 4) and immunocytochemical analysis (FIG. 5) for the neural progenitor cells (undifferentiated; UD) cultured in Example 1, the differentiated cells (D) cultured in Comparative Example 1, and the AS703026-treated cells (UD+AS) cultured in Example 2 to determine whether dopaminergic neurons were differentiated from the neural stem cells.
# mouse neural stem cells [4] = test: Immunoblot analysis of marker expression in cultured neural stem cells; assay type: cell-based
# Procedure: Mouse neural stem cells were cultured in accordance with the procedure of Example 1. […] The cells were cultured for 4 days. Neurospheres were treated with TrypLE and separated into single cells, which were uniformly seeded into a culture dish coated with 15 μg/ml poly-L-ornithine and 10 μg/ml fibronectin. Following culture, the morphology of the cells was observed. In this example, it was confirmed whether dopaminergic neurons were differentiated from neural stem cells. To this end, immunoblot analysis and immunocytochemical analysis were performed on the neural progenitor cells (undifferentiated; UD) cultured in Example 1, the differentiated cells (D) cultured in Comparative Example 1, and the AS703026-treated cells (UD+AS) cultured in Example 2, and the results were compared. The immunoblot analysis was performed by the following procedure. First, the cells were washed with ice-cold phosphate-buffered saline (PBS) and lysed with 1×RIPA buffer (10 mM HEPES, 1.5 mM MgCl2, 10 mM KCl, 0.01 M DTT, protease inhibitors, pH 7.9). The cell homogenate was heated at 100° C. for 10 min and subjected to 10-12% SDS-polyacrylamide gel electrophoresis. Proteins were electrophoretically transferred to a nitrocellulose membrane and blocked with 5% non-fat dry milk in TBS-Tween 20 (0.1%, v/v) for 1 h. Western blotting was performed using anti-Tuj1, anti-GFAP or anti-MBP antibodies and successively horseradish peroxidase-conjugated anti-rabbit or anti-mouse IgG secondary antibodies. The protein bands were visualized using enhanced chemiluminescence (ECL, lab made) and detected with LAS-3000 (FUJIFILM, Tokyo, Japan). FIGS. 4 and 5 show the results of immunoblot analysis (FIG. 4) and immunocytochemical analysis (FIG. 5) for the neural progenitor cells (undifferentiated; UD) cultured in Example 1, the differentiated cells (D) cultured in Comparative Example 1, and the AS703026-treated cells (UD+AS) cultured in Example 2 to determine whether dopaminergic neurons were differentiated from the neural stem cells. […] The AS703026-treated cells were cultured in the same manner as in Example 2. […]
# mouse neural stem cells [5] = test: Cell cycle analysis by PI staining and flow cytometry; assay type: cell-based; conditions: 10 μM, 4 days; PI staining; FIG. 2C
# Procedure: Specifically, the cell cycles were analyzed by the following procedure. First, the cells (Example 1, Example 2, and Comparative Example 1) were washed twice with cold PBS and fixed in cold 70% ethanol for 30 min. The ethanol was removed by centrifugation, the cells were suspended, and the number of the cells was adjusted to 10^6/ml. The cells were washed twice with PBS, treated with 50 μg/ml propidium iodide (PI) at room temperature in the presence of RNase, and cultured for 30 min. Finally, the number of the cells was counted using a FACS Calibur flow cytometer (BD Biosciences, USA). Apoptosis was analyzed as follows. The cells were washed twice with cold PBS, treated with propidium iodide (PI) and Annexin V FITC at room temperature, and cultured for 15 min. PI and FITC fluorescence intensities were measured using a FACS flow cytometer. Data were analyzed with the Cell-quest FACS analysis software (BD Biosciences). The results are shown in FIGS. 2A, 2B, 2C, 3A, 3B and 3C. FIGS. 2A, 2B, 2C, 3A, 3B and 3C show the results of flow cytometry for the neural progenitor cells (undifferentiated; UD) cultured in Example 1, the differentiated cells (D) cultured in Comparative Example 1, and the AS703026-treated cells (UD+AS) cultured in Example 2 to identify the cycles of the cells. […]
# mouse neural stem cells [6] = test: Apoptosis analysis by annexin-V/PI flow cytometry; assay type: cell-based; conditions: 10 μM, 4 days
# Procedure: Finally, the number of the cells was counted using a FACS Calibur flow cytometer (BD Biosciences, USA). Apoptosis was analyzed as follows. The cells were washed twice with cold PBS, treated with propidium iodide (PI) and Annexin V FITC at room temperature, and cultured for 15 min. PI and FITC fluorescence intensities were measured using a FACS flow cytometer. Data were analyzed with the Cell-quest FACS analysis software (BD Biosciences). The results are shown in FIGS. 2A, 2B, 2C, 3A, 3B and 3C. FIGS. 2A, 2B, 2C, 3A, 3B and 3C show the results of flow cytometry for the neural progenitor cells (undifferentiated; UD) cultured in Example 1, the differentiated cells (D) cultured in Comparative Example 1, and the AS703026-treated cells (UD+AS) cultured in Example 2 to identify the cycles of the cells. Specifically, FIGS. 2A, 2B and 2C are histograms showing the results of flow cytometry for the cells stained with PI. FIGS. 3A, 3B and 3C are scatter plot diagrams showing the results of flow cytometry for the cells stains with annexin-V/PI.
# [7] = test system: ventral midbrains of embryos of pregnant mouse models; test: Intraperitoneal administration to pregnant mice; marker expression in embryonic ventral midbrains (immunocytochemistry, RT-PCR); assay type: in vivo
# Procedure: After the same amount of distilled water (D.W) as control was administered intraperitoneally to pregnant mouse models at 10.5 days of gestation daily for 4 consecutive days, the expression levels of the markers in the ventral midbrains, where dopaminergic neurons were most abundantly distributed, were analyzed. The control is marked as “Vehicle” in FIGS. 6 and 7.
# Proteins and mRNAs isolated from the brains of the sacrificed embryos were analyzed by RT-PCR.
# neural stem cells = test: Differentiation of neural stem cells into dopaminergic neurons (general statements, no separate method); assay type: cell-based, mouse; conditions: MEK 1 inhibitor, no MEK 2 inhibition
# [8] = i.p. to pregnant mice from 10.5 days of gestation, daily for 4 days, vs distilled water
smiles,measurement,setting,value
Cc1cc(C(=O)NOCCO)c(Nc2ccc(I)cc2F)n(C)c1=O [AZD8330],Tuj1 (marker of neurons) expression,mouse neural stem cells [1],expressed only
same,tyrosine hydroxylase (TH) expression,mouse neural stem cells [1],expressed only
same,morphology of treated cells,mouse neural stem cells [2],neuron-like morphological changes
"O=C(NC[C@H](O)CO)c1ccncc1Nc1ccc(I)cc1F [AS703026, N-[(2S)-2,3-dihydroxypropyl]-3-[(2-fluoro-4-iodophenyl)amino]isonicotinamide hydrochloride]",expression level of GFAP (astrocyte differentiation factor),"mouse neural stem cells [1]; 10 μM, compared with Tuj1",lower than that of Tuj1
same,expression level of MBP (oligodendrocyte differentiation factor),"mouse neural stem cells [1]; 10 μM, compared with Tuj1",lower than that of Tuj1
same,"expression level of Tuj1 (neuronal differentiation factor), times higher than UD and D cells","mouse neural stem cells [1]; 10 μM, vs undifferentiated (UD) and differentiated (D) cells, FIG. 1A",at least 10 times
same,Tuj1 (marker of neurons) expression,mouse neural stem cells [1],expressed only
same,tyrosine hydroxylase (TH) expression,mouse neural stem cells [1],expressed only
same,immune response to GFAP,mouse neural stem cells [3],No immune responses
same,immune response to MBP,mouse neural stem cells [3],No immune responses
same,number of clusters of dopaminergic neurons from which neurites extended outward,mouse neural stem cells [3]; FIG. 1B,increase
same,number of dopaminergic neurons differentiated (Tuj1 immunocytochemistry),mouse neural stem cells [3]; FIG. 1B,considerable increase
same,"tyrosine hydroxylase (TH) expression, immunocytochemistry","mouse neural stem cells [3]; vs UD and D cells, FIG. 5",expressed only
same,expression pattern of TH compared with cells of Example 2 (10 μM),"mouse neural stem cells [4]; 1 μM (UD+AS, 1)",similar
same,expression pattern of TH compared with cells of Example 2 (10 μM),"mouse neural stem cells [4]; 5 μM (UD+AS, 5)",similar
same,"tyrosine hydroxylase (TH) expression, immunoblot","mouse neural stem cells [4]; 10 μM, 4 days, vs UD and D cells, FIG. 4",expressed only
same,cell cycle,mouse neural stem cells [5],arrested in the G0/G1 phase
same,apoptosis,mouse neural stem cells [6],does not induce apoptosis
same,number of dopaminergic neurons formed in embryo brains vs non-administered animals,[7]; i.p. to pregnant mice at 10.5 days of gestation,approximately twice as large
same,expression level of TH in embryo brains vs control,[7]; [8],significantly higher
same,expression level of Tuj1 in embryo brains vs control,[7]; [8],significantly higher
same,immune response to GFAP in embryo brains,"[7]; i.p. to pregnant mice, 4 days",No immune responses
same,immune response to MBP in embryo brains,"[7]; i.p. to pregnant mice, 4 days",No immune responses
same,differentiation into dopaminergic neurons in embryos (RT-PCR),"[7]; i.p. to pregnant mice, 4 days, FIG. 7",increased differentiation
same,morphology of treated cells,mouse neural stem cells [2],neuron-like morphological changes
COc1cccc(-c2cc(=O)c3ccccc3o2)c1N [PD98059],induction of differentiation of neural stem cells into dopaminergic neurons,neural stem cells,does not induce substantial differentiation
COc1cc(F)c(F)c(Nc2ccc(I)cc2F)c1NS(=O)(=O)C1(C[C@H](O)CO)CC1 [Refametinib],Tuj1 (marker of neurons) expression,mouse neural stem cells [1],expressed only
same,tyrosine hydroxylase (TH) expression,mouse neural stem cells [1],expressed only
same,morphology of treated cells,mouse neural stem cells [2],neuron-like morphological changes
O=C(NOCC(O)CO)c1cc(Br)c(F)c(F)c1Nc1ccc(I)cc1F (centres unmarked) [PD318088],Tuj1 (marker of neurons) expression,mouse neural stem cells [1],expressed only
same,tyrosine hydroxylase (TH) expression,mouse neural stem cells [1],expressed only
same,morphology of treated cells,mouse neural stem cells [2],neuron-like morphological changes
